Source: US10226043B2, “Controlled release biocidal salts” (Nevada Naturals Inc., priority 2005, dated 2019)

Columns and labels:
[1] = tested on: yeast cultures and A. niger; assay: Food-grade preservation test (aloe vera gel challenge); format: cell-based; conditions: for Log Reduction Values, day 0: day 0, initial challenge 7 logs; for Log Reduction Values, day 0 / Log Reduction Values, day 2 / Log Reduction Values, day 7 / Log Reduction Values, day 14: aloe vera gel pH 4-4.5; for Log Reduction Values, day 0 / Log Reduction Values, day 2 / Log Reduction Values, day 7 / Log Reduction Values, day 14 / Log Reduction Values, day 21 / Log Reduction Values, day 28 / Log Reduction Values, day 35 / Log Reduction Values, day 42: LAE-HCl 1725 ppm, LAE-lactate 1500 ppm, lactic acid 1500 ppm; for Log Reduction Values, day 21: day 21 (re-challenge of 7 logs at day 21); for Log Reduction Values, day 28: day 28 (re-challenges of 7 logs at day 21 and day 28); for Log Reduction Values, day 35: day 35, after the second re-challenge; for Log Reduction Values, day 42: day 42, after two re-challenges
Procedure: Aloe vera gel was prepared as a 50% dilution and dispensed as 20 g per container. Inoculum was prepared as 48 hour yeast cultures in tripticase soy broth and A. niger suspension. The inoculum was pooled and 100 μl added to each container. The preservatives were prepared as 1% solutions and added to each pre-labeled container. The samples were well mixed and stored. Recoveries were carried out at selected intervals (1:10 dilutions plated with sabourad dextrose agar. Pre-labeled plates were incubated at 25-30° C. for 48-72 hours; the pH of the samples was in the range of 4-4.5. The plates were removed from incubation, counted cfu recorded and converted to log reduction values.
Thereafter, re-challenges of 7 logs each were made at day 21 and day 28.

[2] = tested on: bacteria that are part of the background flora of raw meat; assay: Antimicrobial activity of compounded films (beef loins in heat-sealed package); format: cell-based
Procedure: Two beef loins from a slaughterhouse were tested in a heat-sealed package simulating food packaging. The linear low density polyethylene film was compounded with 1% w/w LAE lactate biocidal salt of the invention. The log colony forming units (“CFU”) reduction values for bacteria that are part of the background flora of raw meat for both samples are 42 days indicate that there is a release of the salt of the invention from the polyethylene film to the surrounding beef surfaces.

[3] = tested on: microbes such as bacteria, fungi and yeasts; conditions: general statement, no test described; cited from earlier work
[4] = tested on: naturally-occurring aerobic bacteria of beef purge; assay: Beef purge test; format: cell-based; conditions: for Avg. CFU/g / % Reduction: 48 hours, refrigerated, 5% w/w (0.5 g in 10 ml purge); for % Reduction: vs control
Procedure: Two beef tenderloins containing a large quantity of purge (i.e., liquid surrounding raw meats; meat soaker pads were used to trap such liquids to the extent possible) were purchased at a local store. The purge was isolated from the packages and transferred to a series of test tubes and 10 ml of purge were placed in each test tube. To the test tubes was added 0.5 g of either LAE hydrochloride or LAE mono-laurate salts. The samples were mixed in a vortex mixer and serial dilutions were then plated on petrifilm for readings at time zero. The test tubes were then placed in the refrigerator and were again plated at 24 hours and 48 hours. The beef purge contained naturally-occurring aerobic bacteria. The goal is to have >99% reduction of the bacteria after 48 hours. LAE hydrochloride was tested at 0.5 g/10 ml w/v. […] Note that LAE-monolaurate contains about 66% of the active LAE cation.

Bacillus subtilus = assay: Antimicrobial activity of LAE laurate, minimum inhibitory concentration on inoculated soya agar plates; format: cell-based; conditions: Bacillus subtilus (Gram positive), 37° C., 48 hours, salt dissolved in 1,2-pentanediol
Procedure: (§1) 0.1 g of N^α-lauroyl-L-arginine ethyl ester laurate (LAE laurate) was dissolved in 100 g of 1,2-pentanediol so as to provide a solution containing 1,000 parts per million of the salt. The solution was then applied to soya agar plates which had been previously inoculated with the bacteria indicated below and subsequently incubated at 37° C. for 48 hours.

Enterobacter aerogenes = assay: as above; format: cell-based; conditions: Enterobacter aerogenes (Gram negative), 37° C., 48 hours, salt dissolved in 1,2-pentanediol
Procedure: as §1

Staphylococcus aureus = assay: as above; format: cell-based; conditions: Staphylococcus aureus (Gram positive), 37° C., 48 hours, salt dissolved in 1,2-pentanediol
Procedure: as §1

[5] = day 42, film compounded with 1% w/w salt, vs. control

**Q.** What does the source list for `CC(O)C(=O)O.CCCCCCCCCCCC(=O)N[C@@H](CCCNC(=N)N)C(=O)OCC` [LAE lactate]?
**A.** preservation compared with LAE-HCl ([1]; after the two re-challenges): superior to LAE-HCl; Log Reduction Values, day 0 [1]: 0; Log Reduction Values, day 2 [1]: 3.7; Log Reduction Values, day 7 [1]: 6.0; Log Reduction Values, day 14 [1]: 6.0; Log Reduction Values, day 21 [1]: 6.0; Log Reduction Values, day 28 [1]: 3.9; Log Reduction Values, day 35 [1]: 4.0; Log Reduction Values, day 42 [1]: 0.7; Log CFU/g, day 7 ([2]; day 7, beef loin in linear low density polyethylene film compounded with 1% w/w salt): 2.31 Log CFU/g; Log CFU/g, day 14 ([2]; day 14, beef loin in linear low density polyethylene film compounded with 1% w/w salt): 3.68 Log CFU/g; Log CFU/g, day 21 ([2]; day 21, beef loin in linear low density polyethylene film compounded with 1% w/w salt): 3.97 Log CFU/g; Log CFU/g, day 28 ([2]; day 28, beef loin in linear low density polyethylene film compounded with 1% w/w salt): 5.32 Log CFU/g; Log CFU/g, day 42 ([2]; day 42, beef loin in linear low density polyethylene film compounded with 1% w/w salt): 5.57 Log CFU/g; Day 42 % reduction vs. control [2, 5]: 97.9%; Day 42 log reduction vs. control [2, 5]: 1.67

**Q.** Which “biocidal ions needed to inhibit or kill microbes” value [3] does the source give for `CCCCCCCCCCCC(=O)N[C@@H](CCCNC(=N)N)C(=O)OCC` [LAE, N^α-lauroyl-L-arginine ethyl ester] here?
**A.** 2-128 ppm

**Q.** For `CCCCCCCCCCCC(=O)N[C@@H](CCCN=C(N)N)C(=O)OCC.Cl` [LAE-HCl], which “Log Reduction Values, day 0” value [1] is on record?
**A.** 0

**Q.** What about the “Log Reduction Values, day 2” value [1] of the same compound?
**A.** 4.7

**Q.** What about the “Log Reduction Values, day 7” value [1] of the same compound?
**A.** 6.0

**Q.** And the “Log Reduction Values, day 14” value [1]?
**A.** 5.8

**Q.** What about the “Log Reduction Values, day 21” value [1] of the same compound?
**A.** 6.0

**Q.** What about the “Log Reduction Values, day 28” value [1] of the same compound?
**A.** 1.7

**Q.** And the “Log Reduction Values, day 42” value [1]?
**A.** 0.0

**Q.** What about the “Avg. CFU/g” value [4] of the same compound?
**A.** <1.000E+02 CFU/g

**Q.** What about the “% Reduction” value [4] of the same compound?
**A.** 99.999%

**Q.** With `CC(O)C(=O)O` (stereo not drawn) [Lactic acid] as the compound, how does the “Log Reduction Values, day 2” value [1] read?
**A.** 1.0

**Q.** What about the “Log Reduction Values, day 7” value [1] of the same compound?
**A.** 0.2

**Q.** What about the “Log Reduction Values, day 14” value [1] of the same compound?
**A.** 0.0

**Q.** And the “Log Reduction Values, day 35” value [1]?
**A.** 0.0

**Q.** What about the “Log Reduction Values, day 42” value [1] of the same compound?
**A.** 0.0

**Q.** For `[H]/N=C(\N/C(=N/[H])NCCCCCCNC(=N)NC(=N)Nc1ccc(Cl)cc1)Nc1ccc(Cl)cc1` [chlorhexidine], which “biocidal ions needed to inhibit or kill microbes” value [3] is on record?
**A.** 2-8 ppm

**Q.** With `Oc1cc(Cl)ccc1Oc1ccc(Cl)cc1Cl` [triclosan] as the compound, how does the “biocidal ions needed to inhibit or kill microbes” value [3] read?
**A.** 2-40 ppm

**Q.** Which “Minimum Inhibitory Concentration” value (Bacillus subtilus) does the source give for “N^α-lauroyl-L-arginine ethyl ester laurate [LAE laurate]” here?
**A.** <25 ppm

**Q.** And the “Minimum Inhibitory Concentration” value (Enterobacter aerogenes)?
**A.** <45 ppm

**Q.** And the “Minimum Inhibitory Concentration” value (Staphylococcus aureus)?
**A.** <40 ppm

**Q.** And the “Avg. CFU/g” value [4]?
**A.** 2.82E+03 CFU/g

**Q.** And the “% Reduction” value [4]?
**A.** 99.96%

**Q.** And the “performance compared with LAE-HCl” value ([4]; after 48 hours, based on the test requirements (>99% reduction))?
**A.** performed as well as LAE-HCl
